According to PMC5218480 (PLoS ONE, 2017):

System: MV-4-11 cells
Assay: Gene expression microarray analysis (Affymetrix PrimeView) and GSEA
Assay type: cell-based, human
Parameters: RFU PODN (11730768_x_at) / Fold change /veh PODN (11730768_x_at) / RFU LINC00158 (11744669_a_at) / Fold change /veh LINC00158 (11744669_a_at) / RFU DUSP10 (11751237_a_at) / Fold change /veh DUSP10 (11751237_a_at) / RFU ID3 (11757404_x_at) / Fold change /veh ID3 (11757404_x_at) / RFU PLEKHG5 (11737974_s_at) / Fold change /veh PLEKHG5 (11737974_s_at) / RFU LRRC4B (11730491_at) / Fold change /veh LRRC4B (11730491_at) / RFU GIMAP4 (11747438_a_at) / Fold change /veh GIMAP4 (11747438_a_at) / RFU KRT8 (11758183_x_at) / Fold change /veh KRT8 (11758183_x_at) / RFU CNN1 (11734310_a_at) / Fold change /veh CNN1 (11734310_a_at) / RFU VPS37D (11726825_at) / Fold change /veh VPS37D (11726825_at) / RFU C10orf10 (11716522_x_at) / Fold change /veh C10orf10 (11716522_x_at) / RFU KIR2DL2 /// KIR2DL4 /// KIR2DL5A /// KIR2DL5B /// KIR2DS1 /// KIR2DS2 /// KIR2DS3 /// KIR2DS4 /// KIR3DL3 /// KIR3DL3 /// KIR3DS1 (11738374_at) / Fold change /veh KIR2DL2 /// KIR2DL4 /// KIR2DL5A /// KIR2DL5B /// KIR2DS1 /// KIR2DS2 /// KIR2DS3 /// KIR2DS4 /// KIR3DL3 /// KIR3DL3 /// KIR3DS1 (11738374_at) / RFU C1QL1 (11718748_at) / Fold change /veh C1QL1 (11718748_at) / RFU TMPRSS4 (11747572_a_at) / Fold change /veh TMPRSS4 (11747572_a_at) / RFU HAMP (11756126_x_at) / Fold change /veh HAMP (11756126_x_at) / RFU RNFT2 (11725882_a_at) / Fold change /veh RNFT2 (11725882_a_at) / RFU NR4A2 (11747474_a_at) / Fold change /veh NR4A2 (11747474_a_at) / RFU ABCC12 (11746883_a_at) / Fold change /veh ABCC12 (11746883_a_at) / RFU TMEM136 (11760407_x_at) / Fold change /veh TMEM136 (11760407_x_at) / RFU CLDN22 /// WWC2 (11732394_at) / Fold change /veh CLDN22 /// WWC2 (11732394_at) / RFU HLA-DPB1 (11760878_x_at) / Fold change /veh HLA-DPB1 (11760878_x_at) / RFU SPINT1 (11716480_a_at) / Fold change /veh SPINT1 (11716480_a_at) / RFU GAP43 (11754022_s_at) / Fold change /veh GAP43 (11754022_s_at) / RFU A4GNT (11735810_at) / Fold change /veh A4GNT (11735810_at) / RFU PRB3 (11715151_x_at) / Fold change /veh PRB3 (11715151_x_at) / RFU TUBB4B (11761932_at) / Fold change /veh TUBB4B (11761932_at) / RFU CAPN14 (11732068_a_at) / Fold change /veh CAPN14 (11732068_a_at) / RFU TMCC2 (11721928_a_at) / Fold change /veh TMCC2 (11721928_a_at) / RFU IRGQ (11745062_a_at) / Fold change /veh IRGQ (11745062_a_at) / RFU FAM174B (11720279_a_at) / Fold change /veh FAM174B (11720279_a_at) / RFU TMPRSS4 (11748680_a_at) / Fold change /veh TMPRSS4 (11748680_a_at) / RFU FAM212B (11763350_a_at) / Fold change /veh FAM212B (11763350_a_at) / RFU PLEKHG5 (11743358_a_at) / Fold change /veh PLEKHG5 (11743358_a_at) / RFU ZSCAN30 (11745921_a_at) / Fold change /veh ZSCAN30 (11745921_a_at) / RFU CMKLR1 (11741424_a_at) / Fold change /veh CMKLR1 (11741424_a_at) / RFU LOC101060620 /// MAPK8IP1 (11723275_at) / Fold change /veh LOC101060620 /// MAPK8IP1 (11723275_at) / RFU SPTSSB (11747773_x_at) / Fold change /veh SPTSSB (11747773_x_at) / RFU PRSS12 (11739890_at) / Fold change /veh PRSS12 (11739890_at) / RFU BIN1 (11741810_x_at) / Fold change /veh BIN1 (11741810_x_at) / RFU WNT11 (11732464_a_at) / Fold change /veh WNT11 (11732464_a_at) / RFU C10orf10 (11716521_a_at) / Fold change /veh C10orf10 (11716521_a_at) / RFU C5orf56 (11738089_at) / Fold change /veh C5orf56 (11738089_at) / RFU CYB561 (11721691_x_at) / Fold change /veh CYB561 (11721691_x_at) / RFU ANKRD19P (11752326_a_at) / Fold change /veh ANKRD19P (11752326_a_at) / RFU OR2T12 /// OR2T33 /// OR2T8 (11738714_s_at) / Fold change /veh OR2T12 /// OR2T33 /// OR2T8 (11738714_s_at) / RFU VCAN (11748164_a_at) / Fold change /veh VCAN (11748164_a_at) / RFU JSRP1 (11732532_at) / Fold change /veh JSRP1 (11732532_at) / RFU KRTAP10-11 (11738290_x_at) / Fold change /veh KRTAP10-11 (11738290_x_at) / RFU MYO3A (11730013_a_at) / Fold change /veh MYO3A (11730013_a_at) / RFU EBF3 (11725865_a_at) / Fold change /veh EBF3 (11725865_a_at) / RFU CAMK2N1 (11719241_x_at) / Fold change /veh CAMK2N1 (11719241_x_at) / RFU C5orf56 (11738088_a_at) / Fold change /veh C5orf56 (11738088_a_at) / RFU OLFML3 (11715873_a_at) / Fold change /veh OLFML3 (11715873_a_at) / RFU LOC100653217 /// NTM (11731650_a_at) / Fold change /veh LOC100653217 /// NTM (11731650_a_at) / RFU MAPK11 (11762145_a_at) / Fold change /veh MAPK11 (11762145_a_at) / RFU FIZ1 (11724087_x_at) / Fold change /veh FIZ1 (11724087_x_at) / RFU OASL (11726364_x_at) / Fold change /veh OASL (11726364_x_at) / RFU SOX15 (11748057_x_at) / Fold change /veh SOX15 (11748057_x_at) / RFU CD79A (11719716_a_at) / Fold change /veh CD79A (11719716_a_at) / RFU HIST1H1D (11736915_at) / Fold change /veh HIST1H1D (11736915_at) / RFU CASKIN2 (11723855_a_at) / Fold change /veh CASKIN2 (11723855_a_at) / RFU LOC730098 (11760151_x_at) / Fold change /veh LOC730098 (11760151_x_at) / RFU OR4N2 (11742367_at) / Fold change /veh OR4N2 (11742367_at) / RFU PRRT2 (11749266_a_at) / Fold change /veh PRRT2 (11749266_a_at) / RFU SNX32 (11753110_a_at) / Fold change /veh SNX32 (11753110_a_at) / RFU CDHR5 (11726645_a_at) / Fold change /veh CDHR5 (11726645_a_at) / RFU RCAN1 (11760418_a_at) / Fold change /veh RCAN1 (11760418_a_at) / RFU FAM167A (11723789_a_at) / Fold change /veh FAM167A (11723789_a_at) / RFU FAM26E (11764081_at) / Fold change /veh FAM26E (11764081_at) / RFU ISYNA1 (11749810_s_at) / Fold change /veh ISYNA1 (11749810_s_at) / RFU ACY1 (11761880_at) / Fold change /veh ACY1 (11761880_at) / RFU 11764098_at / Fold change /veh 11764098_at / RFU SAMD14 (11745864_x_at) / Fold change /veh SAMD14 (11745864_x_at) / RFU NPB (11741838_a_at) / Fold change /veh NPB (11741838_a_at) / RFU TMPRSS6 (11731388_a_at) / Fold change /veh TMPRSS6 (11731388_a_at) / RFU KRTAP10-2 (11738614_at) / Fold change /veh KRTAP10-2 (11738614_at) / RFU ARHGAP8 /// PRR5-ARHGAP8 (11727945_x_at) / Fold change /veh ARHGAP8 /// PRR5-ARHGAP8 (11727945_x_at) / RFU KRTAP5-7 /// NADSYN1 (11734609_at) / Fold change /veh KRTAP5-7 /// NADSYN1 (11734609_at) / RFU RASL12 (11751679_a_at) / Fold change /veh RASL12 (11751679_a_at) / RFU CDKN2B (11736163_a_at) / Fold change /veh CDKN2B (11736163_a_at) / RFU PRF1 (11729649_at) / Fold change /veh PRF1 (11729649_at) / RFU, ZNF638 /// ZNF638-IT1 / Fold change vs veh, ZNF638 /// ZNF638-IT1 / RFU, PANK3 / Fold change vs veh, PANK3 / RFU, SH3YL1 / Fold change vs veh, SH3YL1 / RFU, ZEB2 / Fold change vs veh, ZEB2 / RFU, NRIP1 / Fold change vs veh, NRIP1 / RFU, PTTG1IP / Fold change vs veh, PTTG1IP / RFU, CAPN2 / Fold change vs veh, CAPN2 / RFU, MED14 / Fold change vs veh, MED14 / RFU, SNORA58 / Fold change vs veh, SNORA58 / RFU, C1orf63 / Fold change vs veh, C1orf63 / RFU, LRRFIP1 / Fold change vs veh, LRRFIP1 / RFU, NDUFAF7 / Fold change vs veh, NDUFAF7 / RFU, SLC12A2 / Fold change vs veh, SLC12A2 / RFU, IBTK / Fold change vs veh, IBTK / RFU, ESF1 / Fold change vs veh, ESF1 / Fold change vs veh, TMEM50B / RFU, TAOK1 / Fold change vs veh, TAOK1 / RFU, ACBD3 / Fold change vs veh, ACBD3 / RFU, TMA16 / Fold change vs veh, TMA16 / RFU, RWDD3 / Fold change vs veh, RWDD3 / RFU, BCAT1 / Fold change vs veh, BCAT1 / RFU, EDEM3 / Fold change vs veh, EDEM3 / RFU, TMEM33 / Fold change vs veh, TMEM33 / RFU, WDR75 / Fold change vs veh, WDR75 / RFU, AHCTF1 / Fold change vs veh, AHCTF1 / RFU, TFRC / Fold change vs veh, TFRC / RFU, ZDHHC17 / Fold change vs veh, ZDHHC17 / RFU, NOM1 / Fold change vs veh, NOM1 / RFU, ARL8B / Fold change vs veh, ARL8B / RFU, ZBTB11 / Fold change vs veh, ZBTB11 / RFU, TAMM41 / Fold change vs veh, TAMM41 / RFU, KIAA1704 /// LOC100996395 / Fold change vs veh, KIAA1704 /// LOC100996395 / RFU, ING1 / Fold change vs veh, ING1 / RFU, TRMT61B / Fold change vs veh, TRMT61B / RFU, FUBP3 / Fold change vs veh, FUBP3 / RFU, TP53 / Fold change vs veh, TP53 / RFU, TNKS2 / Fold change vs veh, TNKS2 / RFU, ZFP14 / Fold change vs veh, ZFP14 / RFU, ACTR2 / Fold change vs veh, ACTR2 / RFU, PPP3R1 / Fold change vs veh, PPP3R1 / RFU, PIK3R1 / Fold change vs veh, PIK3R1 / RFU, HNRNPA1 / Fold change vs veh, HNRNPA1 / RFU, RNF170 / Fold change vs veh, RNF170 / RFU, ZNF28 / Fold change vs veh, ZNF28 / RFU, RNGTT / Fold change vs veh, RNGTT / RFU, OGT / Fold change vs veh, OGT / RFU, BRD1 / Fold change vs veh, BRD1 / RFU, MARS / Fold change vs veh, MARS / RFU, ZNF655 / Fold change vs veh, ZNF655 / RFU, FAHD1 / Fold change vs veh, FAHD1 / RFU, BDP1 / Fold change vs veh, BDP1 / RFU, LRRCC1 / Fold change vs veh, LRRCC1 / RFU, ARID1A / Fold change vs veh, ARID1A / RFU, ZNF146 / Fold change vs veh, ZNF146 / RFU, ZNF330 / Fold change vs veh, ZNF330 / RFU, GPN3 / Fold change vs veh, GPN3 / RFU, C9orf123 / Fold change vs veh, C9orf123 / RFU, N4BP2L2 / Fold change vs veh, N4BP2L2 / RFU, ARFIP1 / Fold change vs veh, ARFIP1 / RFU, FAM179B / Fold change vs veh, FAM179B / RFU, BCL10 / Fold change vs veh, BCL10 / RFU, UHRF1BP1L / Fold change vs veh, UHRF1BP1L / RFU, BET1 / Fold change vs veh, BET1 / RFU, CNOT2 / Fold change vs veh, CNOT2 / RFU, ZNF268 / Fold change vs veh, ZNF268 / Fold change vs veh, ZNF507 / RFU, DGCR2 / Fold change vs veh, DGCR2 / RFU, WDSUB1 / Fold change vs veh, WDSUB1 / Fold change vs veh, HSP90B1 /// MIR3652 / RFU, ADSS / Fold change vs veh, ADSS / RFU, GK / Fold change vs veh, GK / RFU, ZNF148 / Fold change vs veh, ZNF148 / RFU, TAF9 / Fold change vs veh, TAF9 / RFU, SLC1A5 / Fold change vs veh, SLC1A5 / RFU, SLMO2 / Fold change vs veh, SLMO2 / RFU, ABCC4 / Fold change vs veh, ABCC4 / RFU, LOC101060439 /// RAP1B / Fold change vs veh, LOC101060439 /// RAP1B / RFU, RFX7 / Fold change vs veh, RFX7 / RFU, GTPBP10 / Fold change vs veh, GTPBP10 / RFU, CNEP1R1 / Fold change vs veh, CNEP1R1 / RFU, BIVM-ERCC5 /// ERCC5 / Fold change vs veh, BIVM-ERCC5 /// ERCC5 / RFU, ILF3 / Fold change vs veh, ILF3 / RFU 11762660_at / Fold change /veh 11762660_at / RFU VCAN (11757783_s_at) / Fold change /veh VCAN (11757783_s_at) / RFU DDX43 (11728927_at) / Fold change /veh DDX43 (11728927_at) / RFU KRT8 (11758188_x_at) / Fold change /veh KRT8 (11758188_x_at) / RFU NKD1 (11759106_at) / Fold change /veh NKD1 (11759106_at) / RFU SRD5A1 (11742802_a_at) / Fold change /veh SRD5A1 (11742802_a_at) / RFU TPSAB1 /// TPSB2 (11721975_s_at) / Fold change /veh TPSAB1 /// TPSB2 (11721975_s_at) / RFU GSTM3 (11746129_a_at) / Fold change /veh GSTM3 (11746129_a_at) / RFU IL23R (11737362_x_at) / Fold change /veh IL23R (11737362_x_at) / RFU TMEM51 (11727254_a_at) / Fold change /veh TMEM51 (11727254_a_at) / RFU PIWIL2 (11732686_x_at) / Fold change /veh PIWIL2 (11732686_x_at) / RFU ORM1 (11744905_x_at) / Fold change /veh ORM1 (11744905_x_at) / RFU CCDC152 (11743942_at) / Fold change /veh CCDC152 (11743942_at) / RFU ECM1 (11717891_a_at) / Fold change /veh ECM1 (11717891_a_at) / RFU IL23R (11748794_a_at) / Fold change /veh IL23R (11748794_a_at) / RFU TNFAIP8L3 (11732012_x_at) / Fold change /veh TNFAIP8L3 (11732012_x_at) / RFU MBOAT4 (11741988_at) / Fold change /veh MBOAT4 (11741988_at) / RFU 11764193_at / Fold change /veh 11764193_at / RFU TMEM53 (11763286_at) / Fold change /veh TMEM53 (11763286_at) / RFU MAGEB2 (11727129_at) / Fold change /veh MAGEB2 (11727129_at) / RFU TMEM200A (11744735_a_at) / Fold change /veh TMEM200A (11744735_a_at) / RFU CCDC152 (11751479_a_at) / Fold change /veh CCDC152 (11751479_a_at) / RFU FAM211A (11726209_a_at) / Fold change /veh FAM211A (11726209_a_at) / RFU RGS16 (11746705_a_at) / Fold change /veh RGS16 (11746705_a_at) / RFU VCAN (11755009_s_at) / Fold change /veh VCAN (11755009_s_at) / RFU RHOB (11743442_s_at) / Fold change /veh RHOB (11743442_s_at) / RFU RGS16 (11720943_a_at) / Fold change /veh RGS16 (11720943_a_at) / RFU RGS16 (11720944_at) / Fold change /veh RGS16 (11720944_at) / RFU, VPS4B / Fold change vs veh, VPS4B / RFU, CREB1 / Fold change vs veh, CREB1 / RFU, DNAJC13 / Fold change vs veh, DNAJC13 / RFU, GNAQ / Fold change vs veh, GNAQ / RFU, CDK5R1 / Fold change vs veh, CDK5R1 / RFU, ZRANB3 / Fold change vs veh, ZRANB3 / RFU, CUL4A / Fold change vs veh, CUL4A / RFU, CCNY / Fold change vs veh, CCNY / RFU, UFL1 / Fold change vs veh, UFL1 / RFU, COG3 / Fold change vs veh, COG3 / RFU, DIAPH2 / Fold change vs veh, DIAPH2 / RFU, SKA2 / Fold change vs veh, SKA2 / RFU, AFF3 / Fold change vs veh, AFF3 / RFU, LMF1 / Fold change vs veh, LMF1 / RFU, IPO11 / Fold change vs veh, IPO11 / RFU, DFFB / Fold change vs veh, DFFB / RFU, FOXP1 / Fold change vs veh, FOXP1 / RFU, CARD8 / Fold change vs veh, CARD8 / RFU, STRN3 / Fold change vs veh, STRN3 / RFU, ADK / Fold change vs veh, ADK / RFU, RASSF2 / Fold change vs veh, RASSF2 / RFU, WIPF1 / Fold change vs veh, WIPF1 / RFU, LARP1B / Fold change vs veh, LARP1B / RFU, RASA1 / Fold change vs veh, RASA1 / RFU, RB1 / Fold change vs veh, RB1 / RFU, PPFIA1 / Fold change vs veh, PPFIA1 / RFU, MAT2A / Fold change vs veh, MAT2A / RFU, CCT5 / Fold change vs veh, CCT5 / RFU, WDR92 / Fold change vs veh, WDR92 / RFU, CUX1 / Fold change vs veh, CUX1 / RFU, TTC7A / Fold change vs veh, TTC7A / RFU, TMEM135 / Fold change vs veh, TMEM135 / RFU, DEPTOR / Fold change vs veh, DEPTOR / RFU, CPM / Fold change vs veh, CPM / RFU, DNAJB6 / Fold change vs veh, DNAJB6 / RFU, CACNA2D3 / Fold change vs veh, CACNA2D3 / RFU, DTX4 / Fold change vs veh, DTX4 / RFU, TFCP2 / Fold change vs veh, TFCP2 / RFU, GMCL1 /// GMCL1P1 / Fold change vs veh, GMCL1 /// GMCL1P1 / RFU, AEBP2 / Fold change vs veh, AEBP2 / RFU, SNHG1 /// SNORD22 /// SNORD25 /// SNORD26 /// SNORD27 /// SNORD28 /// SNORD29 /// SNORD31 / Fold change vs veh, SNHG1 /// SNORD22 /// SNORD25 /// SNORD26 /// SNORD27 /// SNORD28 /// SNORD29 /// SNORD31 / Fold change (Aza/veh), C12orf56 (ProbeSet 11735607_a_at) / Fold change (ACY-1035/veh), C12orf56 (ProbeSet 11735607_a_at) / Fold change (Aza/veh), FGFR1OP (ProbeSet 11751329_s_at) / Fold change (ACY-1035/veh), FGFR1OP (ProbeSet 11751329_s_at) / Fold change (Aza/veh), VPS36 (ProbeSet 11739960_a_at) / Fold change (ACY-1035/veh), VPS36 (ProbeSet 11739960_a_at) / RFU SYPL1 (11715823_x_at) / Fold change /veh SYPL1 (11715823_x_at) / RFU IGFBP7 (11715501_s_at) / Fold change /veh IGFBP7 (11715501_s_at) / RFU REEP3 (11722064_at) / Fold change /veh REEP3 (11722064_at) / RFU IGLL1 (11728026_x_at) / Fold change /veh IGLL1 (11728026_x_at): dose or concentration left out as unconfirmed
Settings: ProbeSet 11738335_x_at; LIST B

Nc1ccc(-c2cccs2)cc1NC(=O)c1ccc2c(c1)cc(C1CC1)n2CCN1CCOCC1 [ACY-1035]
Fold change vs veh, TP53: 0.84
